Results: ChEMBL document CHEMBL3885881, “DrugMatrix”

Species on record: Rattus norvegicus
Assay: DrugMatrix - Regimen: Daily Repeat
Format: toxicity, organism-based, Sprague-Dawley
Design: regimen Daily Repeat, gender Male, age 6-8 weeks
Details: in vivo, po, route oral GAVAGE, […]; for ABSOLUTE BASOPHIL / ABSOLUTE EOSINOPHIL / ABSOLUTE LYMPHOCYTE / ABSOLUTE MONOCYTE / ABSOLUTE SEGMENTED NEUTROPHIL / BASOPHIL / EOSINOPHIL / ERYTHROCYTE COUNT / HEMATOCRIT / HEMOGLOBIN / LEUKOCYTE COUNT / LYMPHOCYTE / MEAN CORPUSCULAR HEMOGLOBIN / MEAN CORPUSCULAR HEMOGLOBIN CONCENTRATION / MEAN CORPUSCULAR VOLUME / MONOCYTE / NEUTROPHIL / NUCLEATED RED BLOOD CELLS / PLATELET COUNT: tissue Blood; for ALANINE AMINOTRANSFERASE / ALBUMIN / ALKALINE PHOSPHATASE / ASPARTATE AMINOTRANSFERASE / BLOOD UREA NITROGEN / CARBON DIOXIDE / CHLORIDE / CHOLESTEROL / CREATINE PHOSPHOKINASE / CREATININE / GLUCOSE / LACTATE DEHYDROGENASE / LIPASE / PHOSPHORUS / POTASSIUM / SODIUM / TOTAL BILIRUBIN / TOTAL PROTEIN / URIC ACID: tissue Plasma
[1] = 0 mg/kg, 72 h, dose level Control, time 3 day
[2] = 0 mg/kg, dose level Control, time 7 day
[3] = 30 mg/kg, 72 h, dose level Low, time 3 day

S=C=Nc1cccc2ccccc12 [1-NAPHTHYLISOTHIOCYANATE]
ABSOLUTE BASOPHIL [1]: 0 CELLS/uL
ABSOLUTE EOSINOPHIL [1]: 47.5 CELLS/uL
ABSOLUTE LYMPHOCYTE [1]: 9600.67 CELLS/uL
ABSOLUTE MONOCYTE [1]: 195.5 CELLS/uL
ABSOLUTE SEGMENTED NEUTROPHIL [1]: 839.67 CELLS/uL
BASOPHIL [1]: 0%
EOSINOPHIL [1]: 0.5%
ERYTHROCYTE COUNT [1]: 5.26 x10E6/uL
HEMATOCRIT [1]: 34.48%
HEMOGLOBIN [1]: 12.77 G/DL
LEUKOCYTE COUNT [1]: 10.68 x10E3/uL
LYMPHOCYTE [1]: 89.67%
MEAN CORPUSCULAR HEMOGLOBIN [1]: 24.3 pg
MEAN CORPUSCULAR HEMOGLOBIN CONCENTRATION [1]: 37.05 G/DL
MEAN CORPUSCULAR VOLUME [1]: 65.62 fL
MONOCYTE [1]: 1.83%
NEUTROPHIL [1]: 8%
NUCLEATED RED BLOOD CELLS [1]: 0.17 /100WBC
PLATELET COUNT [1]: 1038.67 x10E3/uL
ALANINE AMINOTRANSFERASE [1]: 65.17 u/L
ALBUMIN [1]: 4.2 G/DL
ALKALINE PHOSPHATASE [1]: 377.5 u/L
ASPARTATE AMINOTRANSFERASE [1]: 90.5 u/L
BLOOD UREA NITROGEN [1]: 13.5 mg/dL
CARBON DIOXIDE [1]: 31.17 mmol/L
CHLORIDE [1]: 98.33 MEQ/L
CHOLESTEROL [1]: 66.33 mg/dL
CREATINE PHOSPHOKINASE [1]: 478.83 u/L
CREATININE [1]: 0.19 mg/dL
GLUCOSE [1]: 155.17 mg/dL
LACTATE DEHYDROGENASE [1]: 107.5 u/L
LIPASE [1]: 10.33 u/L
PHOSPHORUS [1]: 9.25 mg/dL
POTASSIUM [1]: 5.43 MEQ/L
SODIUM [1]: 142.05 MEQ/L
TOTAL BILIRUBIN [1]: 0.12 mg/dL
TOTAL PROTEIN [1]: 5.95 G/DL
URIC ACID [1]: 0.62 mg/dL
ABSOLUTE BASOPHIL [2]: 0 CELLS/uL
ABSOLUTE EOSINOPHIL [2]: 43.5 CELLS/uL
ABSOLUTE LYMPHOCYTE [2]: 9369.83 CELLS/uL
ABSOLUTE MONOCYTE [2]: 196.17 CELLS/uL
ABSOLUTE SEGMENTED NEUTROPHIL [2]: 723.83 CELLS/uL
BASOPHIL [2]: 0%
EOSINOPHIL [2]: 0.5%
ERYTHROCYTE COUNT [2]: 5.09 x10E6/uL
HEMATOCRIT [2]: 32.42%
HEMOGLOBIN [2]: 13.1 G/DL
LEUKOCYTE COUNT [2]: 10.33 x10E3/uL
LYMPHOCYTE [2]: 90.83%
MEAN CORPUSCULAR HEMOGLOBIN [2]: 25.75 pg
MEAN CORPUSCULAR HEMOGLOBIN CONCENTRATION [2]: 40.43 G/DL
MEAN CORPUSCULAR VOLUME [2]: 63.62 fL
MONOCYTE [2]: 1.67%
NEUTROPHIL [2]: 7%
NUCLEATED RED BLOOD CELLS [2]: 0 /100WBC
PLATELET COUNT [2]: 1106.5 x10E3/uL
ALANINE AMINOTRANSFERASE [2]: 48.67 u/L
ALBUMIN [2]: 4.13 G/DL
ALKALINE PHOSPHATASE [2]: 275.17 u/L
ASPARTATE AMINOTRANSFERASE [2]: 73.17 u/L
BLOOD UREA NITROGEN [2]: 13.17 mg/dL
CARBON DIOXIDE [2]: 27.5 mmol/L
CHLORIDE [2]: 99.67 MEQ/L
CHOLESTEROL [2]: 60.83 mg/dL
CREATINE PHOSPHOKINASE [2]: 213 u/L
CREATININE [2]: 0.2 mg/dL
GLUCOSE [2]: 166.67 mg/dL
LACTATE DEHYDROGENASE [2]: 94.5 u/L
LIPASE [2]: 10.5 u/L
PHOSPHORUS [2]: 9.98 mg/dL
POTASSIUM [2]: 5.3 MEQ/L
SODIUM [2]: 140.77 MEQ/L
TOTAL BILIRUBIN [2]: 0.15 mg/dL
TOTAL PROTEIN [2]: 5.88 G/DL
URIC ACID [2]: 0.82 mg/dL
ABSOLUTE BASOPHIL [3]: 0 CELLS/uL
ABSOLUTE EOSINOPHIL [3]: 54.67 CELLS/uL
ABSOLUTE LYMPHOCYTE [3]: 18655.83 CELLS/uL
ABSOLUTE MONOCYTE [3]: 720.5 CELLS/uL
ABSOLUTE SEGMENTED NEUTROPHIL [3]: 2902.33 CELLS/uL
BASOPHIL [3]: 0%
EOSINOPHIL [3]: 0.33%
ERYTHROCYTE COUNT [3]: 6.41 x10E6/uL
HEMATOCRIT [3]: 39.98%
HEMOGLOBIN [3]: 14.27 G/DL
LEUKOCYTE COUNT [3]: 22.33 x10E3/uL
LYMPHOCYTE [3]: 84.17%
MEAN CORPUSCULAR HEMOGLOBIN [3]: 22.4 pg
MEAN CORPUSCULAR HEMOGLOBIN CONCENTRATION [3]: 35.92 G/DL
MEAN CORPUSCULAR VOLUME [3]: 62.38 fL
MONOCYTE [3]: 3.17%
NEUTROPHIL [3]: 12.33%
NUCLEATED RED BLOOD CELLS [3]: 0 /100WBC
PLATELET COUNT [3]: 844.83 x10E3/uL
ALANINE AMINOTRANSFERASE [3]: 264.83 u/L
ALBUMIN [3]: 3.62 G/DL
ALKALINE PHOSPHATASE [3]: 660.67 u/L
ASPARTATE AMINOTRANSFERASE [3]: 415.67 u/L
BLOOD UREA NITROGEN [3]: 12.67 mg/dL
CARBON DIOXIDE [3]: 28.83 mmol/L
CHLORIDE [3]: 98 MEQ/L
CHOLESTEROL [3]: 282.33 mg/dL
CREATINE PHOSPHOKINASE [3]: 281.83 u/L
CREATININE [3]: 0.18 mg/dL
GLUCOSE [3]: 117.33 mg/dL
LACTATE DEHYDROGENASE [3]: 160.33 u/L
LIPASE [3]: 11.33 u/L
PHOSPHORUS [3]: 9.08 mg/dL
POTASSIUM [3]: 6.45 MEQ/L
SODIUM [3]: 141.7 MEQ/L
TOTAL BILIRUBIN [3]: 3.02 mg/dL
TOTAL PROTEIN [3]: 6.22 G/DL
URIC ACID [3]: 0.85 mg/dL
